Earlier results in patent publication US20210137911A1, “NOVEL CHRONOTHERAPY BASED ON CIRCADIAN RHYTHMS” (THE TRUSTEES OF THE UNIVERSITY OF PENNSYLVANIA, priority 2014, published 2021).
Residues, ends and D or L forms follow the SMILES beside them.

Details: half-life of therapeutic compound as listed in Table 1; cited from earlier work

| Compound | ½ Life [h] |
| --- | --- |
| CCCCC(C)(O)C/C=C/[C@H]1[C@H](O)CC(=O)[C@@H]1CCCCCCC(=O)OC (mixture of isomers) [Misoprostol] | 0.33 |

Same assay, conditions: half-life of top selling therapeutic compounds (Table 1); cited from earlier work

| Compound | ½ Life [h] |
| --- | --- |
| C[C@]12CC[C@H](O)CC1=CC[C@@H]1[C@@H]2CC[C@]2(C)C(c3cccnc3)=CC[C@@H]12 [Abiraterone] | 5 |
| C[C@H]1O[C@H](O[C@H]2[C@H](O)[C@@H](O)[C@@H](O[C@H]3[C@H](O)[C@@H](O)C(O)O[C@@H]3CO)O[C@@H]2CO)[C@H](O)[C@@H](O)[C@@H]1N[C@H]1C=C(CO)[C@@H](O)[C@H](O)[C@H]1O (some centres unmarked) [Acarbose] | 2 |
| CCCC(=O)Nc1ccc(OCC(O)CNC(C)C)c(C(C)=O)c1 (centres unmarked) [Acebutolol] | 3 |
| CC(=O)c1ccc2c(c1)N(CCCN(C)C)c1ccccc1S2 [Acepromazine] | 3 |
| CC(=O)Nc1ccc(O)cc1 [Acetaminophen] | 1 |
| CC(=O)Nc1nnc(S(N)(=O)=O)s1 [Acetazolamide] | 3 |
| CC(=O)c1ccc(S(=O)(=O)NC(=O)NC2CCCCC2)cc1 [Acetohexamide] | 1.3 |
| CC(=O)N[C@@H](CS)C(=O)O [Acetylcysteine] | 5.6 |
| O=C(O[C@H]1C[N+]2(CCCOc3ccccc3)CCC1CC2)C(O)(c1cccs1)c1cccs1 [Aclidinium] | 2.4 |
| COc1ccc2cccc(CCNC(C)=O)c2c1 [Agomelatine] | 2 |
| Oc1ncnc2[nH]ncc12 [Allopurinol] | 1 |
| CN(C)CCc1c[nH]c2ccc(CS(=O)(=O)N3CCCC3)cc12 [Almotriptan] | 3 |
| C=CCc1ccccc1OCC(O)CNC(C)C (centres unmarked) [Alprenolol] | 2 |
| NCCCNCCSP(=O)(O)O [Amifostine] | 0.133 |
| NCCCCCC(=O)O [Aminocaproic Acid] | 2 |
| NCC(=O)CCC(=O)O [Aminolevulinic acid] | 0.7 |
| CC(C)c1ccc2oc3nc(N)c(C(=O)O)cc3c(=O)c2c1 [Amlexanox] | 3.5 |
| Nc1cc(-c2ccncc2)c[nH]c1=O [Amrinone] | 5 |
| O=C1CN2Cc3c(ccc(Cl)c3Cl)N=C2N1 [Anagrelide] | 0.5 |
| CN1CCc2cccc3c2[C@H]1Cc1ccc(O)c(O)c1-3 [Apomorphine] | 0.66 |
| COC(=O)[C@H](Cc1ccccc1)NC(=O)[C@@H](N)CC(=O)O [Aspartame] (H-Asp-Phe-OMe) | 4.3 |
| CNCC[C@@H](Oc1ccccc1C)c1ccccc1 [Atomoxetine] | 5 |

| Compound | ½ Life [h] |
| --- | --- |
| COc1ccc(CC2c3cc(OC)c(OC)cc3CC[N+]2(C)CCC(=O)OCCCCCOC(=O)CC[N+]2(C)CCc3cc(OC)c(OC)cc3C2Cc2ccc(OC)c(OC)c2)cc1OC (centres unmarked) [Atracurium] | 0.33 |
| COc1ccc(CN=c2[nH]c(N3CCC[C@H]3CO)ncc2C(=O)NCc2ncccn2)cc1Cl [Avanafil] | 5.36 |
| CNC(=O)c1ccccc1Sc1ccc2c(/C=C/c3ccccn3)n[nH]c2c1 [Axitinib] | 2.5 |
| NCC(CC(=O)O)c1ccc(Cl)cc1 (centres unmarked) [Baclofen] | 2.5 |
| CCCCNc1ccc(C(=O)OCCOCCOCCOCCOCCOCCOCCOCCOCCOC)cc1 [Benzonatate] | 3 |
| CCN(CC)C(=O)C1CN2CCc3cc(OC)c(OC)cc3C2CC1OC(C)=O (centres unmarked) [Benzquinamide] | 1 |
| CNCCc1ccccn1 [Betahistine] | 3 |
| C[C@H]1C[C@H]2[C@@H]3CCC4=CC(=O)C=C[C@]4(C)[C@@]3(F)[C@@H](O)C[C@]2(C)[C@@]1(O)C(=O)CO [Betamethasone] | 5.6 |
| CC(C)(Oc1ccc(CCNC(=O)c2ccc(Cl)cc2)cc1)C(=O)O [Bezafibrate, reference compound] | 1 |
| CCNC(=O)CCC/C=C\C[C@@H]1[C@@H](/C=C/[C@@H](O)CCc2ccccc2)[C@H](O)C[C@@H]1O [Bimatoprost] | 0.75 |
| Nc1nc(N/N=C/C2CCCCC2)nc2c1ncn2[C@@H]1O[C@H](CO)[C@@H](O)[C@H]1O [Binodenoson] | 0.166 |
| COc1ccccc1Oc1c(NS(=O)(=O)c2ccc(C(C)(C)C)cc2)nc(-c2ncccn2)nc1OCCO [Bosentan] | 5 |
| Brc1c(NC2=NCCN2)ccc2nccnc12 [Brimonidine] | 2 |
| CC(C)C[C@H]1C(=O)N2CCC[C@H]2[C@]2(O)O[C@](NC(=O)[C@@H]3C=C4c5cccc6[nH]c(Br)c(c56)C[C@H]4N(C)C3)(C(C)C)C(=O)N12 [Bromocriptine] | 2 |
| CCCC1O[C@@H]2C[C@H]3[C@@H]4CCC5=CC(=O)C=C[C@]5(C)[C@H]4[C@@H](O)C[C@]3(C)[C@]2(C(=O)CO)O1 (some centres unmarked) [Budesonide] | 2 |
| CCCCNc1cc(C(=O)O)cc(S(N)(=O)=O)c1Oc1ccccc1 [Bumetanide] | 1 |
| CCCCN1CCCCC1C(=O)Nc1c(C)cccc1C (centres unmarked) [Bupivacaine] | 2.7 |
| Cc1ccc(Cl)c(OCC(O)CNC(C)(C)C)c1 (centres unmarked) [Bupranolol] | 2 |
| CO[C@H]1C(=O)[C@]2(C)[C@@H](OC)C[C@H]3OC[C@@]3(OC(C)=O)[C@H]2[C@H](OC(=O)c2ccccc2)[C@]2(O)C[C@H](OC(=O)[C@H](O)[C@@H](NC(=O)OC(C)(C)C)c3ccccc3)C(C)=C1C2(C)C [Cabazitaxel] | 4 |
| C=C1/C(=C\C=C2/CCC[C@]3(C)[C@@H]([C@H](C)CCCC(C)(C)O)CC[C@@H]23)C[C@@H](O)C[C@@H]1O [Calcitriol] | 5 |
| CCCCCOC(=O)Nc1nc(=O)n([C@@H]2O[C@H](C)[C@@H](O)[C@H]2O)cc1F [Capecitabine] | 0.75 |
| C[C@@](Cc1ccc(O)c(O)c1)(NN)C(=O)O [Carbidopa] | 1 |

| Compound | ½ Life [h] |
| --- | --- |
| COCc1c(C(C)C)nc(C(C)C)c(/C=C/[C@@H](O)C[C@@H](O)CC(=O)O)c1-c1ccc(F)cc1 [Cerivastatin, reference compound] | 2 |
| CC1OC2(CS1)CN1CCC2CC1 (centres unmarked) [Cevimeline] | 5 |
| Cc1cc(C2CCCCC2)n(O)c(=O)c1 [Ciclopirox] | 1.7 |
| CCOc1cc(N)c([N+](=O)[O-])cc1C(=O)NC1CCN(CC2CC=CCC2)CC1 (centres unmarked) [Cinitapride] | 3 |
| COc1ccc(C[C@@H]2c3cc(OC)c(OC)cc3CC[N@+]2(C)CCC(=O)OCCCCCOC(=O)CC[N@@+]2(C)CCc3cc(OC)c(OC)cc3[C@H]2Cc2ccc(OC)c(OC)c2)cc1OC [Cisatracurium Besylate] | 0.366 |
| Nc1nc(Cl)nc2c1ncn2[C@H]1C[C@H](O)[C@@H](CO)O1 [Cladribine] | 5.4 |
| Nc1nc(Cl)nc2c1ncn2[C@@H]1O[C@H](CO)[C@@H](O)[C@@H]1F [Clofarabine] | 5.2 |
| O=C(O)C1N=C(c2ccccc2)c2cc(Cl)ccc2NC1=O (centres unmarked) [Clorazepate] | 2 |
| CCc1cc2c(s1)N(C)C(=O)CN=C2c1ccccc1Cl [Clotiazepam] | 4 |
| Clc1ccccc1C(c1ccccc1)(c1ccccc1)n1ccnc1 [Clotrimazole] | 2 |
| COC(=O)[C@H]1[C@@H](OC(=O)c2ccccc2)C[C@@H]2CC[C@H]1N2C [Cocaine] | 1 |
| COc1cc2c(c(OC)c1OC)-c1ccc(OC)c(=O)cc1[C@@H](NC(C)=O)CC2 [Colchicine] | 1 |
| CN(CC(=O)O)C(=N)N [Creatine] | 3 |
| CN(C)/N=N/c1[nH]cnc1C(N)=O [Dacarbazine] | 5 |
| O=C1CN(/N=C/c2ccc(-c3ccc([N+](=O)[O-])cc3)o2)C(O)=N1 [Dantrolene] | 4 |
| CN(C)[C@@H](CCOc1cccc2ccccc12)c1ccccc1 [Dapoxetine] | 1 |
| Cc1nc(Nc2ncc(C(=O)Nc3c(C)cccc3Cl)s2)cc(N2CCN(CCO)CC2)n1 [Dasatinib] | 3 |
| Nc1ncn([C@H]2C[C@H](O)[C@@H](CO)O2)c(=O)n1 [Decitabine] | 0.51 |
| Cc1cccc([C@H](C)c2cnc[nH]2)c1C [Dexmedetomidine] | 2 |
| C[C@@H](CN1CC(=O)NC(=O)C1)N1CC(=O)NC(=O)C1 [Dexrazoxane] | 2.5 |
| COc1ccc2c(c1)[C@]13CCCC[C@@H]1[C@H](C2)N(C)CC3 [Dextromethorphan] | 3 |

Same assay, conditions: in vivo; cited from earlier work

| Compound | ½ Life [h] |
| --- | --- |
| N[C@@H]1C[C@H]1c1ccccc1 (racemic) [Tranylcypromine] | 1.5 |
| CN(C)Cc1nnc2n1-c1ccc(Cl)cc1C(c1ccccc1)=NC2 [Adinazolam] | 3 |
| CC(C)C(=O)O[C@@H](OC(=O)NC[C@H](CC(=O)O)c1ccc(Cl)cc1)C(C)C [Arbaclofen Placarbil] | 0.1 |
| Oc1ccc(CCCCNC[C@H](O)c2ccc(O)c(O)c2)cc1 [Arbutamine] | 0.133 |
| C[C@H]1C[C@H]2[C@@H]3CCC4=CC(=O)C=C[C@]4(C)[C@@]3(Cl)[C@@H](O)C[C@]2(C)[C@@]1(O)C(=O)CO [Beclomethasone] | 2.8 |
| Cn1c(=O)c2c(ncn2C)n(C)c1=O [Caffeine] | 3 |
| O=NN(CCCl)C(=O)NCCCl [Carmustine] | 0.25 |
| COc1ccc2c3c1O[C@H]1[C@@H](O)C=C[C@H]4[C@@H](C2)N(C)CC[C@@]341 [Codeine] | 3 |
| Nc1ccn([C@@H]2O[C@H](CO)[C@@H](O)[C@@H]2O)c(=O)n1 [Cytarabine] | 0.166 |
| Nc1ccncc1 [Dalfampridine] | 3.5 |
| NC(=O)CC[C@@H]1NC(=O)[C@H](Cc2ccccc2)NC(=O)[C@H](Cc2ccc(O)cc2)NC(=O)CCSSC[C@@H](C(=O)N2CCC[C@H]2C(=O)N[C@H](CCCN=C(N)N)C(=O)NCC(N)=O)NC(=O)[C@H](CC(N)=O)NC1=O [Desmopressin] | 1 |
| COC(=O)[C@H](c1ccccc1)[C@H]1CCCCN1 [Dexmethylphenidate] | 2 |
| C[C@@]12CCCCC[C@@H](Cc3ccc(O)cc31)[C@@H]2N [Dezocine] | 2.2 |

Same assay, conditions: see Table 1; cited from earlier work

| Compound | half-life |
| --- | --- |
| COCc1c(C(C)C)nc(C(C)C)c(/C=C/[C@@H](O)C[C@@H](O)CC(=O)O)c1-c1ccc(F)cc1 [Cerivastatin, reference compound] | less than three |
